Tests used:
Assay type in all cases: functional
Settings in all cases: Homo sapiens
[1] = Antiproliferative activity against VEGF-stimulated HUVEC cells assessed as reduction in cell viability at 10 nM preincubated for 1 hr followed by addition of VEGF measured after 72 hrs by MTT assay
[2] = Antiproliferative activity against VEGF-stimulated HUVEC cells assessed as reduction in cell viability at 0.5 nM preincubated for 1 hr followed by addition of VEGF measured after 72 hrs by MTT assay
[3] = Antiproliferative activity against VEGF-stimulated HUVEC cells assessed as reduction in cell viability at 2 nM preincubated for 1 hr followed by addition of VEGF measured after 72 hrs by MTT assay

Row | Compound | inhibition at 0.01 µM [1] [%] | inhibition at 0.0005 µM [2] [%] | inhibition at 0.002 µM [3] [%]
1 | CCCN(CCC)CC(=O)Nc1cccc(Oc2ccc3c(/C=C/c4ccccc4)n[nH]c3c2)c1 | 25 |  | 
2 | CN(C)C(=S)SCC(=O)Nc1cccc(Nc2ccc3c(/C=C/c4ccccc4)n[nH]c3c2)c1 | 32 |  | 
3 | O=C(Cc1cccnc1)Nc1cccc(Oc2ccc3c(/C=C/c4ccccc4)n[nH]c3c2)c1 | 76 |  | 
4 | O=C(Nc1cccc(C(=O)c2ccc3c(/C=C/c4ccccc4)n[nH]c3c2)c1)C(=O)C1=CCCCC1 | 45 |  | 
5 | Cc1ccc(CCC(=O)Nc2cccc(Nc3ccc4c(/C=C/c5ccccc5)n[nH]c4c3)c2)cc1 | 29 |  | 
6 | O=C(Nc1cccc(Nc2ccc3c(/C=C/c4ccccc4)n[nH]c3c2)c1)C1=C[C@@H](O)[C@@H](O)[C@H](O)C1 | 6 |  | 
7 | CC(C)(C)[C@@H](O)C(=O)Nc1cccc(Oc2ccc3c(/C=C/c4ccccc4)n[nH]c3c2)c1 | 30 |  | 
8 | O=C1CC[C@H](C(=O)Nc2cccc(Nc3ccc4c(/C=C/c5ccccc5)n[nH]c4c3)c2)N1 | 20 |  | 
9 | C[C@@H](CC(=O)Nc1cccc(C(=O)c2ccc3c(/C=C/c4ccccc4)n[nH]c3c2)c1)c1ccccc1 | 52 |  | 
10 | O=C(Cc1ccccc1)C(=O)Nc1cccc(C(=O)c2ccc3c(/C=C/c4ccccc4)n[nH]c3c2)c1 | -37 |  | 
11 | COc1cccc(/C=C/C(=O)Nc2cccc(Nc3ccc4c(/C=C/c5ccccc5)n[nH]c4c3)c2)c1 | 30 |  | 
12 | O=C(CC1CC2CCC1C2)Nc1cccc(C(=O)c2ccc3c(/C=C/c4ccccc4)n[nH]c3c2)c1 (configuration not stated) | 75 |  | 
13 | CCO/C(C)=C/C(=O)Nc1cccc(Oc2ccc3c(/C=C/c4ccccc4)n[nH]c3c2)c1 | 87 |  | 
14 | O=C(/C=C/C1C[C@H]2C=C[C@H]1C2)Nc1cccc(C(=O)c2ccc3c(/C=C/c4ccccc4)n[nH]c3c2)c1 (some centres not stated) | 37 |  | 
15 | CCN(CC)CCNC(=O)c1ccccc1Nc1ccc2c(/C=C/c3ccccn3)n[nH]c2c1 |  | 39 | 15
16 | C=C(C)CNC(=O)c1ccccc1Nc1ccc2c(/C=C/c3ccccn3)n[nH]c2c1 |  | 65 | 110
17 | Nc1ccc(CCNC(=O)c2ccccc2Nc2ccc3c(/C=C/c4ccccn4)n[nH]c3c2)cc1 |  | 32 | 31
18 | Cc1cc(NC(=O)c2ccccc2Nc2ccc3c(/C=C/c4ccccn4)n[nH]c3c2)on1 |  | 26 | 31
19 | O=C(N[C@H](CO)Cc1c[nH]cn1)c1ccccc1Nc1ccc2c(/C=C/c3ccccn3)n[nH]c2c1 |  | 22 | 24
20 | Cc1cc(NNC(=O)c2ccccc2Nc2ccc3c(/C=C/c4ccccn4)n[nH]c3c2)nc(C)n1 |  | 32 | 35
21 | NC(=O)CCNC(=O)c1ccccc1Nc1ccc2c(/C=C/c3ccccn3)n[nH]c2c1 |  | 8 | 18
22 | CN(C)CCNC(=O)c1ccccc1Nc1ccc2c(/C=C/c3ccccn3)n[nH]c2c1 |  | 20 | 10
23 | O=C1CSC(NC(=O)c2ccccc2Nc2ccc3c(/C=C/c4ccccn4)n[nH]c3c2)=N1 |  | 9 | -9

Row | Compound | inhibition at 0.01 µM [1] [%] | inhibition at 0.0005 µM [2] [%] | inhibition at 0.002 µM [3] [%]
24 | CN(C)CCCCNC(=O)c1ccccc1Nc1ccc2c(/C=C/c3ccccn3)n[nH]c2c1 |  | 23 | 16
25 | CCN(CC)CCCCNC(=O)c1ccccc1Nc1ccc2c(/C=C/c3ccccn3)n[nH]c2c1 |  | 22 | 36
26 | CC(C)CCC(C)NC(=O)c1ccccc1Nc1ccc2c(/C=C/c3ccccn3)n[nH]c2c1 (configuration not stated) |  | 6 | 44
27 | O=C(NCCN(CCO)CCO)c1ccccc1Nc1ccc2c(/C=C/c3ccccn3)n[nH]c2c1 |  | 10 | 23
28 | O=C(NN1CCCCC1)c1ccccc1Nc1ccc2c(/C=C/c3ccccn3)n[nH]c2c1 |  | 27 | 17
29 | O=C(NC1OCCO1)c1ccccc1Nc1ccc2c(/C=C/c3ccccn3)n[nH]c2c1 |  | 35 | 63
30 | O=C(NCCN1CCCC1)c1ccccc1Nc1ccc2c(/C=C/c3ccccn3)n[nH]c2c1 |  | 40 | 31
31 | CNNC(=O)c1ccccc1Nc1ccc2c(/C=C/c3ccccn3)n[nH]c2c1 |  | 13 | 31
32 | O=C(NC1CCS(=O)(=O)C1)c1ccccc1Nc1ccc2c(/C=C/c3ccccn3)n[nH]c2c1 (configuration not stated) |  | 27 | 2
33 | Cc1cc(NC(=O)c2ccccc2Nc2ccc3c(/C=C/c4ccccn4)n[nH]c3c2)n(C)n1 |  | 39 | 13
34 | O=C(NCCCN1CCCCCC1)c1ccccc1Nc1ccc2c(/C=C/c3ccccn3)n[nH]c2c1 |  | 25 | -5
35 | CNC(=O)c1ccccc1Nc1ccc2c(/C=C/c3ccccn3)n[nH]c2c1 |  | 8 | 21
36 | CC1(C)OCC(CNC(=O)c2ccccc2Nc2ccc3c(/C=C/c4ccccn4)n[nH]c3c2)O1 (configuration not stated) |  | 28 | 69
37 | O=C(NC1CCc2ccccc21)c1ccccc1Nc1ccc2c(/C=C/c3ccccn3)n[nH]c2c1 (configuration not stated) |  | 19 | 86
38 | O=C(NC1CC1)c1ccccc1Nc1ccc2c(/C=C/c3ccccn3)n[nH]c2c1 |  | 59 | 97
39 | O=C(O)CCCNC(=O)c1ccccc1Nc1ccc2c(/C=C/c3ccccn3)n[nH]c2c1 |  | 16 | 20
40 | O=C(NNc1ccccc1)c1ccccc1Nc1ccc2c(/C=C/c3ccccn3)n[nH]c2c1 |  | 18 | 29
41 | O=C(N[C@@H]1CC=CC[C@@H]1CO)c1ccccc1Nc1ccc2c(/C=C/c3ccccn3)n[nH]c2c1 |  | 58 | 37
42 | O=C(O)CNC(=O)CCNC(=O)c1ccccc1Nc1ccc2c(/C=C/c3ccccn3)n[nH]c2c1 |  | 49 | -9
43 | CN1CCN(CCCNC(=O)c2ccccc2Nc2ccc3c(/C=C/c4ccccn4)n[nH]c3c2)CC1 |  | 0 | 4
44 | CCC(CO)NC(=O)c1ccccc1Nc1ccc2c(/C=C/c3ccccn3)n[nH]c2c1 (configuration not stated) |  | 22 | 23
45 | O=C(N[C@H]1CC[C@H](O)CC1)c1ccccc1Nc1ccc2c(/C=C/c3ccccn3)n[nH]c2c1 |  | 23 | 6
46 | CCCCN(CC)CCNC(=O)c1ccccc1Nc1ccc2c(/C=C/c3ccccn3)n[nH]c2c1 |  | 2 | 6

Row | Compound | inhibition at 0.01 µM [1] [%] | inhibition at 0.0005 µM [2] [%] | inhibition at 0.002 µM [3] [%]
47 | NC(=O)NNC(=O)c1ccccc1Nc1ccc2c(/C=C/c3ccccn3)n[nH]c2c1 |  | 19 | 5
48 | CCCCC(CC)CNC(=O)c1ccccc1Nc1ccc2c(/C=C/c3ccccn3)n[nH]c2c1 (configuration not stated) |  | 28 | 47
49 | CCCNC(=O)c1ccccc1Nc1ccc2c(/C=C/c3ccccn3)n[nH]c2c1 |  | 33 | 64
50 | O=C(Nc1nc2ccccc2[nH]1)c1ccccc1Nc1ccc2c(/C=C/c3ccccn3)n[nH]c2c1 |  | 18 | 43
51 | CCN1CCC[C@@H]1CNC(=O)c1ccccc1Nc1ccc2c(/C=C/c3ccccn3)n[nH]c2c1 |  | 8 | 37
52 | O=C(NCC(O)CO)c1ccccc1Nc1ccc2c(/C=C/c3ccccn3)n[nH]c2c1 (configuration not stated) |  | 22 | 20
53 | COc1cccc(CNC(=O)c2ccccc2Nc2ccc3c(/C=C/c4ccccn4)n[nH]c3c2)c1 |  | 58 | 100
54 | O=C(NOCC(=O)N1CCOCC1)c1ccccc1Nc1ccc2c(/C=C/c3ccccn3)n[nH]c2c1 |  | 15 | -1
55 | O=C(NCC1CCC=CO1)c1ccccc1Nc1ccc2c(/C=C/c3ccccn3)n[nH]c2c1 (configuration not stated) |  | 37 | 16
56 | O=C(NCCN1CCNC1=O)c1ccccc1Nc1ccc2c(/C=C/c3ccccn3)n[nH]c2c1 |  | 5 | 1
57 | O=C(NC1CCC1)c1ccccc1Nc1ccc2c(/C=C/c3ccccn3)n[nH]c2c1 |  | 42 | 80
58 | O=C(CNC(=O)c1ccccc1Nc1ccc2c(/C=C/c3ccccn3)n[nH]c2c1)NO |  | 5 | 9
59 | CC(C)[C@H](CO)NC(=O)c1ccccc1Nc1ccc2c(/C=C/c3ccccn3)n[nH]c2c1 |  | 47 | -4
60 | O=C(NNC(=O)c1ccccc1Nc1ccc2c(/C=C/c3ccccn3)n[nH]c2c1)c1ccc[nH]1 |  | 60 | 99
61 | CONC(=O)c1ccccc1Nc1ccc2c(/C=C/c3ccccn3)n[nH]c2c1 |  | 62 | 99
62 | CCOC(CCNC(=O)c1ccccc1Nc1ccc2c(/C=C/c3ccccn3)n[nH]c2c1)OCC |  | 30 | 70
63 | CN(NC(=O)c1ccccc1Nc1ccc2c(/C=C/c3ccccn3)n[nH]c2c1)C(N)=S |  | 12 | 29
64 | CC(C)(C)ONC(=O)c1ccccc1Nc1ccc2c(/C=C/c3ccccn3)n[nH]c2c1 |  | -3 | 64
65 | CC(C)(C(=O)NNC(=O)c1ccccc1Nc1ccc2c(/C=C/c3ccccn3)n[nH]c2c1)n1cncn1 |  | 34 | 90
66 | O=C(NCCCN(CCO)CCO)c1ccccc1Nc1ccc2c(/C=C/c3ccccn3)n[nH]c2c1 |  | 4 | 4
67 | CSc1nc(NC(=O)c2ccccc2Nc2ccc3c(/C=C/c4ccccn4)n[nH]c3c2)nn1C |  | 16 | 2
68 | O=C(NCC(F)(F)F)c1ccccc1Nc1ccc2c(/C=C/c3ccccn3)n[nH]c2c1 |  | 34 to 53 | 61 to 95
